Assay results: US12274703B2, “Compositions and methods of treatment for neurological disorders comprising a dementia” (Gliapharm SA, priority 2017, dated 2025)
Where a name gives a salt, the structure may show the parent alone. Read-outs that look alike come from different tables or passages of the source.

How the values were obtained:
primary astrocytes = assay: High throughput screening for lactate secretion: acidification of extracellular medium (SNARF5); assay type: cell-based, mouse; design: key to Score / HTS Score (lactate) / HTS Score (SNARF5) / Score_SNARF: fraction of positive control activity (positive control = 100%); conditions: for Emax at 10 µM: Mus musculus, Astrocyte, 1.5 h; for Score_SNARF: primary screening confirmation (SNARF5)
How it was run: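 Mouse cortical astrocytes (DIV17) stimulated 90 min at 10 uM compound (1% DMSO) in low-bicarbonate DMEM, 5 mM glucose, with SNARF-5F; extracellular acidification read as 630/580 nm emission ratio (exc 480 nm). Duplicates; score as % of CCCP 2 uM control, hits >3× summed SD above DMSO.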

astrocytes [1] = assay: MTT viability assay; assay type: cell-based; conditions: Mus musculus, Astrocyte, cellular toxicity, 0-200 uM
Experimental: (§1) Primary cultures of cerebrocortical astrocytes were obtained from 1-2-day-old OF1 mouse pups (Charles River Laboratories). Briefly, cortices were isolated and minced in small pieces under a dissecting microscope. The cells were incubated for 30 min at 37° C. in a solution containing 20 U/ml of papain enzyme (Worthington Biochemical), L-cysteine 1 mM (Sigma), and 10 kU/ml DNase I (Worthington Biochemical) for an enzymatic dissociation. Papain activity was stopped by the addition of fetal calf serum (FCS) to the solution, and a single-cell suspension was then obtained by mechanical dissociation, which consisted in cells trituration in a DMEM (D7777, Sigma-Aldrich) medium (supplemented with 44 mm NaHCO3, and 10 ml/L antibiotic/antimycotic solution) containing 10% FCS. The cells were seeded at an average density of 6×10^4 cells/cm^2 in poly-D-lysine-coated 96, 12 or 6-well culture plates, depending on their use, and incubated at 37° C. in a humidified atmosphere containing 5% CO2/95% air. Culture medium was renewed twice per week. Cells were stimulated and harvested between DIV14 and DIV17, when confluence and cell growth were optimal.
For cell toxicity determination, astrocytes in 96-well plates were stimulated 24 h (37° C. 5% CO2/95% air) with a gradient ranging from 0.1 to 200 μM of tested compounds. After stimulation, 5 mg/ml thiazol blue tetrazolium bromide (MTT, Sigma-Aldrich) in warm D5030 complete medium was added to each well, and cells were incubated for 4 h at 37° C. (5% CO2). The medium was then removed by aspiration, and the reaction was stopped by the addition of 50 μl DMSO per well.
The amount of reduced MTT (formazan) solubilized in DMSO was then determined spectrophotometrically using absorbance at 570 nm (Safire 2; Tecan).
MTT cellular viability assay was performed on astrocytes exposed to molecules from the Prestwick library (Prestwick hits; concentrations ranging from 0 uM to 200 uM).
MTT cellular viability assay was performed on astrocytes exposed to CDC54K hits (concentrations ranging from 0 uM to 200 uM).

astrocytes [2] = assay: Extracellular lactate quantification; assay type: cell-based, mouse; conditions: for EC50: Mus musculus, Astrocyte; for Score_LACTATE: Appendix I, secondary screening, dosage of extracellular lactate
Experimental: as §1
Secretion of L-lactate was determined in the extracellular medium of 96-well plated astrocytes after 90 min stimulation (at 37° C., in 5% CO2/95% air conditions) with the drug of interest. The stimulation medium was composed of D5030 medium (completed with D-glucose 5 mM and 44 mM sodium bicarbonate) for 90 min in concentrations ranging from 0 to 100 μM.
Briefly, 200 μl of a Glycine (Sigma)-Semicarbazide (Acros) 0.2M pH 10 buffer containing 3 mM NAD (Roche) and LDH 14 U/ml (Roche) was added to each well of a 96-well plate containing 30 μl aliquots complemented with 20 μl fresh complete D5030 medium. Samples were incubated at 37° C. for 1 h. After samples cooled down at room temperature, the fluorescence intensity (340 nm excitation/450 nm emission) that represents the amount of NADH produced was measured, and lactate concentration values were determined from a standard curve of L-lactate.
Statistical analysis consisted in ANOVA followed by Fisher LSD post-hoc test for pair-wise comparisons.
Levels of lactate secreted by astrocytes were measured in the extracellular medium at 90 min after stimulation with hits (molecules) from the CDC54K library.

astrocytes [3] = assay: Intracellular glycogen quantification; assay type: cell-based, mouse; conditions: 10 μM, 3 h
astrocytes [4] = assay: Production of H2O2 (mitochondrial activity); assay type: cell-based; conditions: Mus musculus, Astrocyte, 1.5 h; CDC54K hits; 0-200 uM, 90 min
Experimental: as §1
Hydrogene peroxide (H2O2) released in the supernatant is detected enzymatically with Amplex red (Zhou, Diwu et al. 1997). Oxidation of Amplex red is catalysed by the horseradish peroxidase in presence of H2O2 into highly fluorescent resorufin. Fluorescence measure is read at 545 nm extinction, 590 nm emission. The amount of H2O2 was expressed relatively to the proteins content extracted from the cells in culture. […]
Mitochondrial respiration in astrocytes was measured through production of H2O2 at 90 min after stimulation with CDC54K hits (ranging from 0 to 200 uM).

[5] = Prestwick hits, 10 uM, 90 min, activity relative to positive control CCCP 2 uM, read-out: Score
[6] = Prestwick hits, 10 uM, 90 min, relative to positive control CCCP 2 uM, read-out: HTS Score (lactate)
[7] = 1.5 h, Prestwick hits, 0-100 μM, 90 min, read-out: Lactate EC50
[8] = Appendix I, primary screening, 10 uM, 90 min, relative to positive control, read-out: Score
[9] = CDC54K hits, 10 uM, 90 min, relative to positive control CCCP 2 uM, read-out: HTS Score (SNARF5)
[10] = 1.5 h, CDC54K hits, 0-100 uM, 90 min, read-out: Lactate EC50
[11] = Appendix I, primary screening, 10 uM, 90 min, relative to positive control
[12] = CDC54K hits, 10 uM, 90 min, relative to positive control CCCP 2 uM

| EC50 (astrocytes [2]; [7]) [µM] | IC50 (astrocytes [4]) [µM] | EC50 (astrocytes [2]; [10]) [µM] | Structure (SMILES) | Emax at 10 µM (primary astrocytes; [5]) [%] | Emax at 10 µM (primary astrocytes; [6]) [%] | IC50 (astrocytes [1]; Prestwick hits, 24 h) [µM] | IC50 (astrocytes [1]; CDC54K hits) [µM] | further results |
| --- | --- | --- | --- | --- | --- | --- | --- | --- |
| 2.73 |  |  | N=C(N)N1CCc2ccccc2C1 [Debrisoquin sulfate] | 23.8 | 23.8 | > 200 |  |  |
| 12.2 |  |  | CC[N+](CC)(CC(=O)Nc1c(C)cccc1C)Cc1ccccc1 [Denatonium benzoate] | 11 | 11 | 178 |  |  |
| 1.17 |  |  | C[N+]1(C)CCC(=C(c2ccccc2)c2ccccc2)CC1 [Diphemanil methylsulfate] | 48.4 | 48.4 | 13.9 |  |  |
| 5.16 |  |  | O=C(COc1ccc(Cl)cc1)N1CCN(Cc2ccc3c(c2)OCO3)CC1 [Fipexide hydrochloride] | 16.6 | 16.6 | 44 |  | Glycogen (statistical significance of glycogen degradation) (astrocytes [3]; Prestwick hits): ns |
| 0.602 |  |  | COC1=C(OC)C(=O)C(CCCCCCCCCCO)=C(C)C1=O [Idebenone] | 25.9 | 25.9 | 112 |  |  |
|  | > 200 | 2 | COc1ccccc1NC(=O)Cc1nn(C)c(=O)c2ccccc12 [K851-0113] |  |  |  | > 200 | Emax at 10 µM (primary astrocytes; [8]): 72.2%; Emax at 10 µM (primary astrocytes; [9]): 72.2%; Glycogen (statistical significance of glycogen degradation) (astrocytes [3]; CDC54K hits): ns |
|  | 173 | 2 | CSc1cccc(NS(=O)(=O)c2ccc3onc(C(=O)N4CCCC4)c3c2)c1 [L995-0125] |  |  |  | > 200 | Score_SNARF (primary astrocytes; Appendix I): 0.8016; Score (primary astrocytes; [11]): 0.8545; HTS Score (SNARF5) (primary astrocytes; [12]): 0.854; Glycogen (statistical significance of glycogen degradation) (astrocytes [3]; CDC54K hits): ns; Score_LACTATE (astrocytes [2]): 0.9122 |
| 0.854 |  |  | [H]/N=C(\N/C(=N/[H])Nc1ccc(Cl)cc1)NC(C)C [Proguanil hydrochloride] | 55.5 | 55.5 | 48.1 |  |  |
| 11.7 |  |  | CC(C)[N+](C)(CCOC(=O)C1c2ccccc2Oc2ccccc21)C(C)C [Propantheline bromide] | 49.1 | 49.1 | 12.8 |  |  |
|  | > 200 | 15 | Fc1ccc(-c2cc3n(n2)CCCN(Cc2ccncc2)C3)cc1 [T202-1455] |  |  |  | > 200 | Emax at 10 µM (primary astrocytes; [8]): 97.1%; Emax at 10 µM (primary astrocytes; [9]): 97.1%; Glycogen (statistical significance of glycogen degradation) (astrocytes [3]; CDC54K hits): ns |
|  | > 200 | 10.2 | CC(=O)c1cccc(NC(=O)C(C)Sc2ncnc3ccccc23)c1 (stereo not shown) [T0511-9200] |  |  |  | > 200 | Emax at 10 µM (primary astrocytes; [8]): 84.4%; Emax at 10 µM (primary astrocytes; [9]): 84.4%; Glycogen (statistical significance of glycogen degradation) (astrocytes [3]; CDC54K hits): ns |
|  | > 200 | 10 | CCc1ccc(S(=O)(=O)N2CCSC2c2ccc(OC)c(OC)c2)cc1 (stereo not shown) [T5463586] |  |  |  | > 200 | Score_SNARF (primary astrocytes; Appendix I): 0.5553; Score (primary astrocytes; [11]): 0.7707; HTS Score (SNARF5) (primary astrocytes; [12]): 0.77; Score_LACTATE (astrocytes [2]): 0.3936 |
|  | 158 | 8.8 | CCc1ccc(S(=O)(=O)Nc2ccc3[nH]ncc3c2)cc1 [T5599014] |  |  |  | > 200 | Score_SNARF (primary astrocytes; Appendix I): 0.5778; Score (primary astrocytes; [11]): 0.5424; HTS Score (SNARF5) (primary astrocytes; [12]): 0.542; Glycogen (statistical significance of glycogen degradation) (astrocytes [3]; CDC54K hits): ns; Score_LACTATE (astrocytes [2]): 0.4419 |
|  | > 200 | 23.5 | COc1cccc(CNS(=O)(=O)c2ccc3c(c2)CCCN3C(C)=O)c1 [T5967389] |  |  |  | > 200 | Emax at 10 µM (primary astrocytes; [8]): 79%; Emax at 10 µM (primary astrocytes; [9]): 79%; EC50 (astrocytes [2]; Appendix II, lactate secretion, read-out: EC50): 9.67 µM |
|  |  |  | O=c1n(CCCN2CCN(c3cccc(Cl)c3)CC2)nc2ccccn12 [Trazodone hydrochloride, trazodone, reference compound] |  |  |  |  | Score (primary astrocytes; Prestwick hits, 10 uM, 90 min, activity relative to positive control CCCP 2 uM): 0.08377; HTS Score (lactate) (primary astrocytes; Prestwick hits, 10 uM, 90 min, relative to positive control CCCP 2 uM): 0.084; Glycogen (statistical significance of glycogen degradation) (astrocytes [3]; Prestwick hits): ns |
| 2.57 |  |  | Cc1c(C)c2c(c(C)c1O)CCC(C)(COc1ccc(CC3SC(=O)NC3=O)cc1)O2 (stereo not shown) [Troglitazone] | 27 | 27 | 106 |  |  |

| Structure (SMILES) | EC50 (astrocytes [2]; [7]) [µM] | IC50 (astrocytes [4]) [µM] | EC50 (astrocytes [2]; [10]) [µM] | Emax at 10 µM (primary astrocytes; [5]) [%] | Emax at 10 µM (primary astrocytes; [6]) [%] | IC50 (astrocytes [1]; Prestwick hits, 24 h) [µM] | IC50 (astrocytes [1]; CDC54K hits) [µM] | further results |
| --- | --- | --- | --- | --- | --- | --- | --- | --- |
| COc1ccc(Cc2nccc3cc(OC)c(OC)cc23)cc1OC [Papaverine hydrochloride] | 0.629 |  |  | 35.5 | 35.5 | > 200 |  |  |
| C#C[C@]1(O)CC[C@H]2[C@@H]3[C@H](C)CC4=C(CCC(=O)C4)[C@H]3CC[C@@]21C [Tibolone] | 2.23 |  |  | 22.7 | 22.7 | 60.7 |  |  |
